Values after ≈ are worked out from the molar mass of the structure shown. Read-outs that look alike come from different tables or passages of the source.
Assays:
[1] = tested on: strains of Klebsiella pneumoniae displaying MDR phenotypes; experiment: MIC-assay, Mueller-Hinton broth with G-block alginate, 384-well, OD600 (Table 10); format: cell-based; settings: read-out: MIC
Text: Minimum inhibitory concentration (MICs) of different antibiotics for strains of Klebsiella pneumoniae displaying MDR phenotypes in the presence of varying concentrations of OligoCF-5/20 (0-10%). (MIC values are expressed in μg ml^−1).

[2] = tested on: MDR Providencia stuartii; experiment: MIC-assay, Mueller-Hinton broth with G-block alginate, 384-well, OD600 (Table 11); format: cell-based; settings: Providencia stuartii (IR57 India, V7) MDR
Text: (§1) Minimum inhibitory concentration (MICs) of different antibiotics for strains of E. coli and Providencia stuartii displaying MDR phenotypes in the presence of varying concentrations of OligoCF-5/20 (0-10%). (MIC values are expressed in μg ml^−1).

[3] = tested on: strains of E. coli displaying MDR phenotypes; experiment: as above; format: cell-based; settings: Escherichia coli, Escherichia coli (5702, Wales, V11) MDR, read-out: MIC
Text: as §1

[4] = tested on: Staphylococcus aureus (MRSA) U50; experiment: MIC-assay, Mueller-Hinton broth with G-block alginate, 384-well, OD600 (Table 12); format: cell-based; settings: MRSA 1040s, U50 MDR, read-out: MIC
Text: (§2) Minimum inhibitory concentration (MICs) of different antibiotics for strains of Streptococcus oralis and Staphylococcus aureus (MRSA) displaying MDR phenotypes in the presence of varying concentrations of OligoCF-5/20 (0-10%). (MIC values are expressed in μg ml^−1).

[5] = tested on: Streptococcus oralis; experiment: as above; format: cell-based; settings: Streptococcus oralis (5610, V17) MDR, read-out: MIC
Text: as §2

[6] = tested on: Pseudomonas aeruginosa (R22, PSA, V1); experiment: MIC-assay, Mueller-Hinton broth with G-block alginate, 384-well, OD600
[7] = tested on: Burkholderia cepacia (1322, V23); experiment: as above
[8] = tested on: Burkholderia cepacia (LMG18941, ATCC-BAA-246); experiment: as above
[9] = tested on: Acinetobacter baumannii (MDR ACB, Libya, V4); experiment: as above
[10] = Table 8, G-block (OligoCF-5/20) 0%
[11] = Table 8, G-block (OligoCF-5/20) 2%
[12] = Table 8, G-block (OligoCF-5/20) 6%
[13] = Table 8, G-block (OligoCF-5/20) 10%

Compound: CC[C@H]1OC(=O)[C@H](C)[C@@H](O[C@H]2C[C@@](C)(OC)[C@@H](O)[C@H](C)O2)[C@H](C)[C@@H](O[C@@H]2O[C@H](C)C[C@H](N(C)C)[C@H]2O)[C@](C)(O)C[C@@H](C)[C@@H]2N[C@@H](COCCOC)O[C@H]([C@H]2C)[C@]1(C)O [Dirithromycin]
- MIC ([1]; Klebsiella pneumoniae (5712, Wales, V12) MDR, G-block (OligoCF-5/20) 0%): 128 µg/mL (≈ 153 µM)
- MIC ([1]; Klebsiella pneumoniae (5712, Wales, V12) MDR, G-block (OligoCF-5/20) 2%): 64 µg/mL (≈ 76.6 µM)
- MIC ([1]; Klebsiella pneumoniae (5712, Wales, V12) MDR, G-block (OligoCF-5/20) 6%): 64 µg/mL (≈ 76.6 µM)
- MIC ([1]; Klebsiella pneumoniae (5712, Wales, V12) MDR, G-block (OligoCF-5/20) 10%): 32 µg/mL (≈ 38.3 µM)
- MIC ([1]; Klebsiella pneumoniae (IR25, India, V6) MDR, G-block (OligoCF-5/20) 0%): 1020 µg/mL (≈ 1230 µM)
- MIC ([1]; Klebsiella pneumoniae (IR25, India, V6) MDR, G-block (OligoCF-5/20) 2%): 1020 µg/mL (≈ 1230 µM)
- MIC ([1]; Klebsiella pneumoniae (IR25, India, V6) MDR, G-block (OligoCF-5/20) 6%): 512 µg/mL (≈ 613 µM)
- MIC ([1]; Klebsiella pneumoniae (IR25, India, V6) MDR, G-block (OligoCF-5/20) 10%): 256 µg/mL (≈ 307 µM)
- MIC ([1]; Klebsiella pneumoniae (K3, India, V8) MDR, G-block (OligoCF-5/20) 0%): 256 µg/mL (≈ 307 µM)
- MIC ([1]; Klebsiella pneumoniae (K3, India, V8) MDR, G-block (OligoCF-5/20) 2%): 128 µg/mL (≈ 153 µM)
- MIC ([1]; Klebsiella pneumoniae (K3, India, V8) MDR, G-block (OligoCF-5/20) 6%): 128 µg/mL (≈ 153 µM)
- MIC ([1]; Klebsiella pneumoniae (K3, India, V8) MDR, G-block (OligoCF-5/20) 10%): 128 µg/mL (≈ 153 µM)
- MIC ([2]; G-block (OligoCF-5/20) 0%): 8 µg/mL (≈ 9.58 µM)
- MIC ([2]; G-block (OligoCF-5/20) 2%): 4 µg/mL (≈ 4.79 µM)
- MIC ([2]; G-block (OligoCF-5/20) 6%): 4 µg/mL (≈ 4.79 µM)
- MIC ([2]; G-block (OligoCF-5/20) 10%): 2 µg/mL (≈ 2.39 µM)
- MIC ([3]; G-block (OligoCF-5/20) 0%): 128 µg/mL (≈ 153 µM)
- MIC ([3]; G-block (OligoCF-5/20) 2%): 64 µg/mL (≈ 76.6 µM)
- MIC ([3]; G-block (OligoCF-5/20) 6%): 32 µg/mL (≈ 38.3 µM)
- MIC ([3]; G-block (OligoCF-5/20) 10%): 64 µg/mL (≈ 76.6 µM)
- MIC ([4]; G-block (OligoCF-5/20) 0%): 1020 µg/mL (≈ 1230 µM)
- MIC ([4]; G-block (OligoCF-5/20) 2%): 512 µg/mL (≈ 613 µM)
- MIC ([4]; G-block (OligoCF-5/20) 6%): 512 µg/mL (≈ 613 µM)
- MIC ([4]; G-block (OligoCF-5/20) 10%): 256 µg/mL (≈ 307 µM)
- MIC ([5]; G-block (OligoCF-5/20) 0%): 4 µg/mL (≈ 4.79 µM)
- MIC ([5]; G-block (OligoCF-5/20) 2%): 4 µg/mL (≈ 4.79 µM)
- MIC ([5]; G-block (OligoCF-5/20) 6%): < 0.0312 µg/mL
- MIC ([5]; G-block (OligoCF-5/20) 10%): 0.0312 µg/mL (≈ 0.0374 µM)
- MIC [6, 10]: > 512 µg/mL
- MIC [6, 11]: > 512 µg/mL
- MIC [6, 12]: 512 µg/mL (≈ 613 µM)
- MIC [6, 13]: 256 µg/mL (≈ 307 µM)
- MIC [7, 10]: 256 µg/mL (≈ 307 µM)
- MIC [7, 11]: 256 µg/mL (≈ 307 µM)
- MIC [7, 12]: 128 µg/mL (≈ 153 µM)
- MIC [7, 13]: 64 µg/mL (≈ 76.6 µM)
- MIC ([8]; ATCCBAA246|LMG18941, Table 8, G-block (OligoCF-5/20) 0%): 512 µg/mL (≈ 613 µM)
- MIC ([8]; ATCCBAA246|LMG18941, Table 8, G-block (OligoCF-5/20) 2%): 256 µg/mL (≈ 307 µM)
- MIC ([8]; ATCCBAA246|LMG18941, Table 8, G-block (OligoCF-5/20) 6%): 256 µg/mL (≈ 307 µM)
- MIC ([8]; ATCCBAA246|LMG18941, Table 8, G-block (OligoCF-5/20) 10%): 256 µg/mL (≈ 307 µM)
- MIC ([9]; Table 9, G-block (OligoCF-5/20) 0%): 64 µg/mL (≈ 76.6 µM)
- MIC ([9]; Table 9, G-block (OligoCF-5/20) 2%): 8 µg/mL (≈ 9.58 µM)
- MIC ([9]; Table 9, G-block (OligoCF-5/20) 6%): 2 µg/mL (≈ 2.39 µM)
- MIC ([9]; Table 9, G-block (OligoCF-5/20) 10%): < 1 µg/mL

— patent US9801901B2, “Alginate oligomers for use in overcoming multidrug resistance in bacteria” (priority 2009, dated 2017)
